Patent US20250064941A1, “SIGLEC LIGANDS, CONJUGATES, AND METHODS OF USE THEREOF” (Osprey Biopharmaceuticals, Inc., priority 2023, published 2025)
pKd: −log10 of the molar value.

Assays:
[1] = molecular target: cynomolgus Siglec-2/CD22 (Macaca fascicularis, UniProt A0A2K5WCZ6); assay: biochemical; assay type: binding; settings: SPR, steady-state analysis; read-out: Affinity cyno CD22
Method in brief: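 Compound binding measured by steady-state SPR analysis, 120 s dissociation, in HEPES-NaCl-Tween buffer pH 7.5 containing 1% DMSO, DMSO solvent-corrected. Surface: cyno CD22, sialic acids first stripped by SialoExo for 4 h at 37° C., then amine-coupled onto CM5.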

[2] = molecular target: T1, mouse Siglec-2-Fc-Avi (CD22) (Mus musculus, UniProt P35329); assay: SPR binding affinity to mouse CD22; settings: steady-state analysis
T1 construct: made in house
T1 sequence (P35329 22-708 limits assumed): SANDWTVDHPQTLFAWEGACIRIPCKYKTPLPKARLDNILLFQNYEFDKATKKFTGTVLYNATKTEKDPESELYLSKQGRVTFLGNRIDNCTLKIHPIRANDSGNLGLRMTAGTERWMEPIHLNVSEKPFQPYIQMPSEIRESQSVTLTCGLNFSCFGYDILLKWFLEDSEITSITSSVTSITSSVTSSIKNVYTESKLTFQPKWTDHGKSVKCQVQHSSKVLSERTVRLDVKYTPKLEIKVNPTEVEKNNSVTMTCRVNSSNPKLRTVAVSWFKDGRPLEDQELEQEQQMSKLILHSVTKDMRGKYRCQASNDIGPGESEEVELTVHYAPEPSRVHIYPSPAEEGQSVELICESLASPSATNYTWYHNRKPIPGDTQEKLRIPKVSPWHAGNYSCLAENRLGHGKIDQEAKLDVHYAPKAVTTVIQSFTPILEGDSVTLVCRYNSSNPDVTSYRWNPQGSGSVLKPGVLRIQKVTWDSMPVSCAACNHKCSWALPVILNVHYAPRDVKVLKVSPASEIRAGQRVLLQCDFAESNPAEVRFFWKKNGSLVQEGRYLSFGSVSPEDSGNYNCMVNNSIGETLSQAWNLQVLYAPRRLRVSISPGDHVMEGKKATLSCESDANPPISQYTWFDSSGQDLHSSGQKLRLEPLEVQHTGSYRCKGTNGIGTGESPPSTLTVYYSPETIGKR
Method in brief: (§1)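 Using a Biacore 8K, compounds were tested against biotinylated CD22 captured after sialidase treatment. The running buffer held 1% DMSO, corrected with a 0.5–2% DMSO series. Affinity was derived by steady-state analysis.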

[3] = molecular target: T2, human Siglec-2/CD22 protein (Homo sapiens, UniProt P20273); assay: SPR binding affinity to human CD22; settings: steady-state analysis
T2 construct: purchased Acro Biosystems SI2-H82E3
T2 sequence (P20273 20-847): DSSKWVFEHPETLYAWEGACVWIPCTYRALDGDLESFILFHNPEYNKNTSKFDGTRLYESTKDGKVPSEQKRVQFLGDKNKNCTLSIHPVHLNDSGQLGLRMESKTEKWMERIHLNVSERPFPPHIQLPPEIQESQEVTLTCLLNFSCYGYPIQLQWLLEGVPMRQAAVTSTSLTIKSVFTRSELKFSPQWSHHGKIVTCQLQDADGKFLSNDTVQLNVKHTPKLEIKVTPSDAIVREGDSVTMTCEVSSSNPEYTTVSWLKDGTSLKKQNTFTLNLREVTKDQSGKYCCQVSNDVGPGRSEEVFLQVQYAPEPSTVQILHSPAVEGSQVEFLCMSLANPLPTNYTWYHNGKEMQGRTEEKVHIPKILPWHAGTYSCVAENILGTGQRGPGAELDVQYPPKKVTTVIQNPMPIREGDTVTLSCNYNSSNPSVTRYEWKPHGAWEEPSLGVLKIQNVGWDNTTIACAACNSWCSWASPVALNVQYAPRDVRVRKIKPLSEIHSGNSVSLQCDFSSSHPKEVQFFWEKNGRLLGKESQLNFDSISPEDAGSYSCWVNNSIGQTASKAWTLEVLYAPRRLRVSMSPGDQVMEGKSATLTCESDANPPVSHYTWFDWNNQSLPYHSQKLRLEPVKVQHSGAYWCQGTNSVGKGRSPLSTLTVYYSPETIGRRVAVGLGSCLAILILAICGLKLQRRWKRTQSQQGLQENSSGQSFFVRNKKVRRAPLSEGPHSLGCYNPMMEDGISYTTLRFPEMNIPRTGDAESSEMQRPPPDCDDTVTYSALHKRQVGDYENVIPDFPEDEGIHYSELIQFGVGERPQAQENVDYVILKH
Method in brief: as §1

Chain of cynomolgus Siglec-2/CD22 (A0A2K5WCZ6 entry or part of it): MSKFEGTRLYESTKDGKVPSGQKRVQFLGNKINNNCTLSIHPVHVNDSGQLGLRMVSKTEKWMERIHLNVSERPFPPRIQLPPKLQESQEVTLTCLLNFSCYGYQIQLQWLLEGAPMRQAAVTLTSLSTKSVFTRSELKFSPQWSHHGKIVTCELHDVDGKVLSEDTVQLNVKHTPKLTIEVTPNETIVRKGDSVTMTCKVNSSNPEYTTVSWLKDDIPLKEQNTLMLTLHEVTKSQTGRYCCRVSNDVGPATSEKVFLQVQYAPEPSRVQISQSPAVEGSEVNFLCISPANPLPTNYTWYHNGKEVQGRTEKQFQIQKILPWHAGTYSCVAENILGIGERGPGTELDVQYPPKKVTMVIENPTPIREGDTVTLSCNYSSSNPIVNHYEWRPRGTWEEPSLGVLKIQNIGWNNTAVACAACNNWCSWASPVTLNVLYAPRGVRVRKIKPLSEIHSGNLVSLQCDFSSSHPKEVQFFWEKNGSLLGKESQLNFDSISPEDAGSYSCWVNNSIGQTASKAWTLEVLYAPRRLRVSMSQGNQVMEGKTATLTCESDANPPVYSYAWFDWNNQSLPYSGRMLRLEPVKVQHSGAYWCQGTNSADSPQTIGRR

C#CCOc1ccc(CO[C@]2(C(=O)O)C[C@H](O)[C@@H](NC(=O)CO)[C@H]([C@H](O)[C@H](O)CNC(=O)Cc3ccc(-c4ccc(F)cc4)cc3)O2)cc1 [Compound 48, (2R,4S,5R,6R)-6-((1R,2R)-3-(2-(4′-fluoro-[1,1′-biphenyl]-4-yl)acetamido)-1,2-dihydroxypropyl)-4-hydroxy-5-(2-hydroxyacetamido)-2-((4-(prop-2-yn-1-yloxy)benzyl)oxy)tetrahydro-2H-pyran-2-carboxylic acid] showed a pKd [1] of 5.00 to 6.00, a pKd [2] of 5.00 to 6.00 and a pKd [3] greater than 6.00.

Work on CC(=O)NCCOCCOCCOCCOCCNC(=O)CCOCCO[C@]1(C(=O)O)C[C@H](O)[C@@H](NC(=O)CO)[C@H]([C@H](O)[C@H](O)CNC(=O)Cc2ccc(Cl)cc2)O1 [Compound 239, (2R,4S,5R,6R)-6-((1R,2R)-3-(2-(4-chlorophenyl)acetamido)-1,2-dihydroxypropyl)-2-((2,19-dioxo-6,9,12,15,22-pentaoxa-3,18-diazatetracosan-24-yl)oxy)-4-hydroxy-5-(2-hydroxyacetamido) tetrahydro-2H-pyran-2-carboxylic acid] yielded a pKd [1] of 5.00 to 6.00, a pKd [2] of 5.00 to 6.00 and a pKd [3] of 5.00 to 6.00.

Compound C#CCOCCOCCNc1c(NCCCCCCO[C@]2(C(=O)O)C[C@H](O)[C@@H](NC(=O)CO)[C@H]([C@H](O)[C@H](O)CNC(=O)c3ccc(F)cc3)O2)c(=O)c1=O [Compound 232, (2R,4S,5R,6R)-2-((6-((3,4-dioxo-2-((2-(2-(prop-2-yn-1-yloxy)ethoxy)ethyl)amino)cyclobut-1-en-1-yl)amino)hexyl)oxy)-6-((1R,2R)-3-(4-fluorobenzamido)-1,2-dihydroxypropyl)-4-hydroxy-5-(2-hydroxyacetamido)tetrahydro-2H-pyran-2-carboxylic acid] has a pKd [1] of 5.00 to 6.00, a pKd [2] of less than 5.00 and a pKd [3] of 5.00 to 6.00.

In the case of C#CCCOc1ccc(CO[C@]2(C(=O)O)C[C@H](O)[C@@H](NC(=O)CO)[C@H]([C@H](O)[C@H](O)CNC(=O)Cc3ccc(Cl)cc3)O2)cc1 [Compound 124, (2R,4S,5R,6R)-2-((4-(but-3-yn-1-yloxy)benzyl)oxy)-6-((1R,2R)-3-(2-(4-chlorophenyl)acetamido)-1,2-dihydroxypropyl)-4-hydroxy-5-(2-hydroxyacetamido)tetrahydro-2H-pyran-2-carboxylic acid], the pKd [1] was 5.00 to 6.00, the pKd [2] was greater than 6.00 and the pKd [3] was greater than 6.00.

Compound C#CCOCCOCCNc1c(NCCCCCCO[C@]2(C(=O)O)C[C@H](O)[C@@H](NC(=O)CO)[C@H]([C@H](O)[C@H](O)CNC(=O)C(F)(F)c3ccccc3)O2)c(=O)c1=O [Compound 41, (2R,4S,5R,6R)-6-((1R,2R)-3-(2,2-difluoro-2-phenylacetamido)-1,2-dihydroxypropyl)-2-((6-((3,4-dioxo-2-((2-(2-(prop-2-yn-1-yloxy)ethoxy)ethyl)amino)cyclobut-1-en-1-yl)amino)hexyl)oxy)-4-hydroxy-5-(2-hydroxyacetamido) tetrahydro-2H-pyran-2-carboxylic acid] has a pKd [1] of 5.00 to 6.00, a pKd [2] of 5.00 to 6.00 and a pKd [3] of 5.00 to 6.00.

CC(=O)NCCOCCOCCOCCOCc1cn(CCCCCCO[C@]2(C(=O)O)C[C@H](O)[C@@H](NC(=O)CO)[C@H]([C@H](O)[C@H](O)CNC(=O)Cc3ccc(Cl)cc3)O2)nn1 [Cpd. 246, (2R,4S,5R,6R)-6-((1R,2R)-3-(2-(4-chlorophenyl)acetamido)-1,2-dihydroxypropyl)-4-hydroxy-5-(2-hydroxyacetamido)-2-((6-(4-(15-oxo-2,5,8,11-tetraoxa-14-azahexadecyl)-1H-1,2,3-triazol-1-yl)hexyl)oxy) tetrahydro-2H-pyran-2-carboxylic acid] was tested, and the pKd [1] was greater than 6.00, the pKd [2] was greater than 6.00 and the pKd [3] was greater than 6.00.

C#CCOCCCCCCO[C@]1(C(=O)O)C[C@H](O)[C@@H](NC(=O)C(=O)NC)[C@H]([C@H](O)[C@H](O)CNC(=O)Cc2ccc(Cl)cc2)O1 [Compound 189, (2R,4S,5R,6R)-6-((1R,2R)-3-(2-(4-chlorophenyl)acetamido)-1,2-dihydroxypropyl)-4-hydroxy-5-(2-(methylamino)-2-oxoacetamido)-2-((6-(prop-2-yn-1-yloxy)hexyl)oxy)tetrahydro-2H-pyran-2-carboxylic acid] showed a pKd [1] greater than 6.00, a pKd [2] of 5.00 to 6.00 and a pKd [3] of 5.00 to 6.00.

In the case of CC(=O)NCCOCCOCCOCCOCCC(=O)NCCCCCCO[C@]1(C(=O)O)C[C@H](O)[C@@H](NC(=O)CO)[C@H]([C@H](O)[C@H](O)CNC(=O)Cc2ccc(-c3nnn[nH]3)cc2)O1 [Cpd. 235, (2R,4S,5R,6R)-6-((1R,2R)-3-(2-(4-(1H-tetrazol-5-yl)phenyl)acetamido)-1,2-dihydroxypropyl)-2-((2,18-dioxo-6,9,12,15-tetraoxa-3,19-diazapentacosan-25-yl)oxy)-4-hydroxy-5-(2-hydroxyacetamido)tetrahydro-2H-pyran-2-carboxylic acid], the pKd [1] was greater than 6.00, the pKd [2] was greater than 6.00 and the pKd [3] was greater than 6.00.

C#CCOCCCCCCO[C@]1(C(=O)O)C[C@H](O)[C@@H](Nc2c(N)c(=O)c2=O)[C@H]([C@H](O)[C@H](O)CNC(=O)Cc2ccc(Cl)cc2)O1 [Compound 190, (2R,4S,5R,6R)-5-((2-amino-3,4-dioxocyclobut-1-en-1-yl)amino)-6-((1R,2R)-3-(2-(4-chlorophenyl)acetamido)-1,2-dihydroxypropyl)-4-hydroxy-2-((6-(prop-2-yn-1-yloxy)hexyl)oxy)tetrahydro-2H-pyran-2-carboxylic acid] showed a pKd [1] greater than 6.00, a pKd [2] of 5.00 to 6.00 and a pKd [3] greater than 6.00.

In the case of C#CCOCCOCCO[C@]1(C(=O)O)C[C@H](O)[C@@H](NC(=O)CC#N)[C@H]([C@H](O)[C@H](O)CNC(=O)Cc2ccc(-c3ccc(O)cc3)cc2)O1 [Compound 58, (2R,4S,5R,6R)-5-(2-cyanoacetamido)-6-((1R,2R)-1,2-dihydroxy-3-(2-(4′-hydroxy-[1,1′-biphenyl]-4-yl)acetamido)propyl)-4-hydroxy-2-(2-(2-(prop-2-yn-1-yloxy)ethoxy)ethoxy)tetrahydro-2H-pyran-2-carboxylic acid], the pKd [1] was 5.00 to 6.00, the pKd [2] was 5.00 to 6.00 and the pKd [3] was 5.00 to 6.00.

In the case of C#CCOCCCCCCO[C@]1(C(=O)O)C[C@H](O)[C@@H](NC(=O)Cc2nn[nH]n2)[C@H]([C@H](O)[C@H](O)CNC(=O)Cc2ccc(Cl)cc2)O1 [Compound 208, (2R,4S,5R,6R)-5-(2-(2H-tetrazol-5-yl)acetamido)-6-((1R,2R)-3-(2-(4-chlorophenyl)acetamido)-1,2-dihydroxypropyl)-4-hydroxy-2-((6-(prop-2-yn-1-yloxy)hexyl)oxy)tetrahydro-2H-pyran-2-carboxylic acid], the pKd [1] was greater than 6.00, the pKd [2] was less than 5.00 and the pKd [3] was 5.00 to 6.00.

C#CCOCCCCCCO[C@]1(C(=O)O)C[C@H](O)[C@@H](NC(=O)CO)[C@H]([C@H](O)[C@H](O)CNC(=O)Cc2ccc3[nH]ccc3c2)O1 [Compound 6, (2R,4S,5R,6R)-6-((1R,2R)-3-(2-(1H-indol-5-yl)acetamido)-1,2-dihydroxypropyl)-4-hydroxy-5-(2-hydroxyacetamido)-2-((6-(prop-2-yn-1-yloxy)hexyl)oxy)tetrahydro-2H-pyran-2-carboxylic acid] was tested, and the pKd [1] was greater than 6.00, the pKd [2] was 5.00 to 6.00 and the pKd [3] was greater than 6.00.
